Measured values from ChEMBL document CHEMBL1127439, “Structure-activity relationship studies of central nervous system agents. 13. 4-[3-(Benzotriazol-1-yl)propyl]-1-(2-methoxyphenyl)piperazine, a new putative 5-HT1A receptor antagonist, and its analogs” (J Med Chem, 1994).

Experiments:
Type in all cases: functional
Mus musculus [1] = experiment: Effect on body temperature in mice at intraperitoneal dosage of 8 mg/kg, (compound administered 30 min before the test) after 45 min
Mus musculus [2] = experiment: Effect on body temperature in mice at intraperitoneal dosage of 2 mg/kg, (compound administered 30 min before the test) after 60 min
Mus musculus [3] = experiment: Effect on body temperature in mice at intraperitoneal dosage of 2 mg/kg, (compound administered 30 min before the test) after 30 min
Mus musculus [4] = experiment: Effect on body temperature in mice at intraperitoneal dosage of 4 mg/kg, (compound administered 30 min before the test) after 75 min
Mus musculus [5] = experiment: Effect on body temperature in mice at intraperitoneal dosage of 8 mg/kg, (compound administered 30 min before the test) after 75 min
Rattus norvegicus [6] = experiment: Tested for the effect on 8-OH-DPAT-induced behavior in reserpine pretreated rat against flat body posture at dosage of 2 mg/kg
Rattus norvegicus [7] = experiment: Tested for the induction of lower lip retraction (LLR) by the investigated compounds in rat at dosage of 2 mg/kg
Mus musculus [8] = experiment: Effect on body temperature in mice at intraperitoneal dosage of 2 mg/kg, (compound administered 30 min before the test) after 90 min
Mus musculus [9] = experiment: Effect on body temperature in mice at intraperitoneal dosage of 8 mg/kg, (compound administered 30 min before the test) after 90 min
Mus musculus [10] = experiment: Effect on 8-OH-DPAT-induced hypothermia in mice (5 mg/kg) at intraperitoneal dosage of 8 mg/kg of compound after 15 mins
Rattus norvegicus [11] = experiment: Tested for the effect on 8-OH-DPAT-induced behavior in reserpine pretreated rat against flat body posture at dosage of 4 mg/kg
Mus musculus [12] = experiment: Effect on body temperature in mice at intraperitoneal dosage of 1 mg/kg, (compound administered 30 min before the test) after 45 min
Mus musculus [13] = experiment: Effect on body temperature in mice at intraperitoneal dosage of 4 mg/kg, (compound administered 30 min before the test) after 30 min
Mus musculus [14] = experiment: Effect on body temperature in mice at intraperitoneal dosage of 4 mg/kg, (compound administered 30 min before the test) after 90 min
Mus musculus [15] = experiment: Effect on body temperature in mice at intraperitoneal dosage of 1 mg/kg, (compound administered 30 min before the test) after 60 min
Mus musculus [16] = experiment: Effect on 8-OH-DPAT-induced hypothermia in mice (5 mg/kg) at intraperitoneal dosage of 1 mg/kg of compound after 45 mins

COc1ccccc1N1CCN(CCCn2nnc3ccccc32)CC1
Delta t (Mus musculus [1]): 0.2 °C
Delta t (Mus musculus [2]): 0.2 °C
Delta t (Mus musculus [3]): 0.3 °C
Delta t (Mus musculus [4]): 0 °C
Delta t (Mus musculus [5]): 0.2 °C
Behavioral score (Rattus norvegicus [6]): 14.8
LLR score (Rattus norvegicus [7]): 0.1
Delta t (Mus musculus [8]): 0.1 °C
Delta t (Mus musculus [9]): 0.2 °C
Delta t (Mus musculus [10]): 0.3 °C
Behavioral score (Rattus norvegicus [11]): 11.5
Delta t (Mus musculus [12]): 0.1 °C
Delta t (Mus musculus [13]): 0.4 °C
Delta t (Mus musculus [14]): 0.2 °C
Delta t (Mus musculus [15]): 0.1 °C
Delta t (Mus musculus [16]): 0.6 °C
